The record followed here is patent publication US20240009166A1, “USE OF ZANAMIVIR IN PREPARATION OF DRUG FOR TREATING OR PREVENTING PREECLAMPSIA” (Shenzhen Evergreen Therapeutics Co., Ltd., priority 2020, published 2024).

Holding throughout (assay type): in vivo, CD-1 mice
Test [1] deals with L-NAME-induced pre-eclampsia animal model. The test is described as follows: Blood pressure on day 12 of gestation in L-NAME-induced pre-eclampsia model. Particulars: days 1-18 of pregnancy, vs pregnancy model group. The procedure:
(§1) Pregnant CD-1 mice (age 8-10 weeks) were randomly divided into control and pre-eclampsia model groups. On days 7-16 of the gestational cycle, the model group mice were induced with preeclampsia by subcutaneous injection of 50 mg/kg of N-nitro-L-arginine methyl ester (L-NAME) daily. For the control group, an equal volume of the solvent was injected subcutaneously. [table] In animal models of L-NAME-induced pre-eclampsia, symptoms of hypertension appear two days after the first administration of L-NAME and persist until at least five days after the first administration of L-NAME, according to the literature. The appearance of proteinuric symptoms was relatively late. Therefore, in this experiment, we focused on monitoring the blood pressure of […] on day 12 of gestation (i.e., five days after the first administration of L-NAME), as well as collecting 24-hour urine on day 17-18 of gestation and measuring the level of total protein. Also, we recorded the number of pups produced by each group of pregnant rats.

For test [2] the test system is unchanged. The test is described as follows: 24-hour urinary total protein on days 17-18 of gestation in L-NAME-induced pre-eclampsia model. Particulars: for L-NAME-induced 24-hour urinary protein elevation: vs pregnancy model group. The procedure: as §1
Test [3] shares this test system. The test is described as follows: Number of pups (litter size) in L-NAME-induced pre-eclampsia model. The procedure: as §1
The mark [4] stands for this setting: 90 mg/kg tail vein injection daily.
The mark [5] stands for this setting: 120 mg/kg tail vein injection daily.

“Also recorded” adds a separate entry of the source.

Take `CC(=O)N[C@H]1[C@H]([C@H](O)[C@H](O)CO)OC(C(=O)O)=C[C@@H]1N=C(N)N` [zanamivir, 5-acetamido-4-[(aminoiminomethyl)-amino]-2,6-hydro-3,4,5-trideoxy-D-propanetriolyl-D-galactos-2-enolonic acid]: the blood pressure result in test [1] (setting [4]) is “did not significantly change”. For the same compound, in test [1] (setting [5]), the “L-NAME-induced increase in diastolic blood pressure” value was “significantly reduced”. Besides, the “L-NAME-induced increase in mean arterial pressure” value in test [1] (setting [5]) is “significantly reduced”. For the same compound, in test [1] (setting [5]), the “L-NAME-induced increase in systolic blood pressure” value is on record as “significantly reduced”. For the same compound, the “L-NAME-induced 24-hour urinary protein elevation” value in test [2] (setting [4]) and in test [2] (setting [5]) was “significantly reduced” each time. Further, the “L-NAME-induced elevation of 24-hour urinary protein” value in test [2] (FIG. 4 legend, dose not stated) was “significantly reduces”. The “reduction of litter size caused by L-NAME” value is given as “significantly improved” in test [3] (90 mg/kg tail vein injection daily, vs pregnancy model group); “significantly improved; also recorded: returning to a level comparable to that of the pregnant control group” in test [3] (120 mg/kg tail vein injection daily, vs pregnancy model group); “significantly improved” in test [3] (FIG. 5 legend, dose not stated).
